Results reported in PubChem BioAssay (NCI).
Several values for one entry are separate records, joined by “and”; a condition that tells them apart may be missing. Equal entries are not always repeated.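 1) Cells in 96-well plates. 2) Compound, 48 h, 5 concentrations. 3) Linear interpolation between surrounding doses. 4) Unreached endpoint = highest concentration. GI50 marks 50% less growth. At the TGI there is no net growth.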

Key:
Assay in all cases: inhibition of tumour cell growth, NCI panel, 48 h
786-0 renal = system: 786-0 renal
A498 renal = system: A498 renal
HS 578T breast = system: HS 578T breast
M14 melanoma = system: M14 melanoma
MALME-3M melanoma = system: MALME-3M melanoma
NCI-H522 lung = system: NCI-H522 lung
SK-MEL-28 melanoma = system: SK-MEL-28 melanoma
SW-620 colon = system: SW-620 colon
UACC-257 melanoma = system: UACC-257 melanoma
SK-MEL-5 melanoma = system: SK-MEL-5 melanoma

| SMILES | GI50 (786-0 renal) | TGI (786-0 renal) | GI50 (A498 renal) | TGI (A498 renal) | GI50 (HS 578T breast) | TGI (HS 578T breast) | GI50 (M14 melanoma) | TGI (M14 melanoma) | GI50 (MALME-3M melanoma) | TGI (MALME-3M melanoma) | GI50 (NCI-H522 lung) | TGI (NCI-H522 lung) | GI50 (SK-MEL-28 melanoma) | TGI (SK-MEL-28 melanoma) | GI50 (SW-620 colon) | TGI (SW-620 colon) | GI50 (UACC-257 melanoma) | TGI (UACC-257 melanoma) | GI50 (SK-MEL-5 melanoma) | TGI (SK-MEL-5 melanoma) |
| --- | --- | --- | --- | --- | --- | --- | --- | --- | --- | --- | --- | --- | --- | --- | --- | --- | --- | --- | --- | --- |
| CCOC(=O)CNC(=O)CCCn1c(=O)c2c3ccccc3n(C)c2n2nnc(-c3ccccc3)c12 | 5130 nM | 17.4 µM | 7.29 µM | 24.6 µM | 4.51 µM | > 50 µM | 18700 nM | > 50 µM | > 50000 nM | > 50 µM | 6490 nM | 19.9 µM | > 50000 nM | > 50 µM | > 50000 nM | > 50 µM | > 50000 nM | > 50 µM |  |  |
| COc1cccc2c1cc([N+](=O)[O-])c1c(C(=O)O)cc3c(c12)OCO3 | 27600 nM | > 100 µM | 16 µM | 32.9 µM and 83.4 µM | 36.3 µM | > 100 µM |  | > 100 µM | 31100 nM | > 100 µM |  | > 100 µM | 46700 nM | > 100 µM | 28200 nM | > 100 µM | 28700 nM | > 100 µM | 22300 nM | 72.2 µM and > 100 µM |
| Oc1ccc(Br)cc1/C=N/NC(=S)NC12CC3CC(CC(C3)C1)C2 | 2320 nM | 5.05 µM | 2.18 µM | 7.19 µM | 1.99 µM | 6.69 µM | 1860 nM | 5.84 µM | 2230 nM | 6.26 µM | 4780 nM | 16.1 µM | 2660 nM | 10.1 µM | 1740 nM | 3.47 µM | 2110 nM | 6.96 µM | 1720 nM | 3.74 µM |
| CCN(CC)CCCCCOc1cc(O)c2c(=O)cc(-c3ccccc3)oc2c1 | 1970 nM | 3.81 µM | 2.46 µM | 9.48 µM | 15.6 µM | 42.7 µM | 1710 nM | 3.1 µM | 1860 nM | 4.2 µM | 2230 nM | 5.13 µM | 1620 nM | 3.07 µM | 3030 nM | 10.3 µM | 1810 nM | 3.55 µM | 1910 nM | 3.83 µM |
| O=C(O)C(Br)C(Br)c1ccccc1[N+](=O)[O-] (stereo not drawn) |  | > 100 µM |  | > 100 µM |  | > 100 µM |  | > 100 µM |  | > 100 µM |  | > 100 µM |  | > 100 µM |  | > 100 µM |  | > 100 µM |  | > 100 µM |
| C=CC[Se]C(=O)Cc1c(C)n(C(=O)c2ccc(Cl)cc2)c2ccc(OC)cc12 | 1730 nM | 3.19 µM | 1.52 µM | 4.25 µM | 2.25 µM | 7.33 µM | 1640 nM | 3.16 µM | 1710 nM | 3.45 µM | 1970 nM | 4.63 µM | 1690 nM | 3.12 µM | 1990 nM | 4.42 µM | 2020 nM | 4.64 µM | 1730 nM | 3.13 µM |
| CCCCCCNC(=O)Oc1ccc(/C(=C(\C)c2ccccc2)c2ccc(OCCN3CCCCC3)cc2)cc1 | 1690 nM | 3.12 µM | 7.46 µM | 21.6 µM | 2.71 µM | 13.4 µM | 1980 nM | 3.97 µM | 1750 nM | 3.46 µM | 1910 nM | 4.07 µM | 2060 nM | 4.41 µM | 2160 nM | 5.66 µM | 2690 nM | 9.16 µM | 1630 nM | 2.99 µM |
| CCCC(=O)NC(c1ccc2c(c1)OCO2)c1ccc2cccnc2c1O (stereo not drawn) | 1640 nM | 14.7 µM | 3.22 µM | 12.6 µM | 5.76 µM | 78.8 µM | 1080 nM | 20.6 µM | 2170 nM | > 100 µM | 1630 nM | > 100 µM | 3030 nM | > 100 µM | 1200 nM | > 100 µM |  |  | 1740 nM | 3.9 µM |
| Oc1ccc(/C=N/Nc2nc3ccccc3s2)c(O)c1 | 3680 nM | 53.8 µM | 4.16 µM | 36.8 µM | 2.91 µM | > 100 µM | 1380 nM | 12.1 µM | 1430 nM | 7.26 µM | 1390 nM | 6.11 µM | 2990 nM | > 100 µM | 3470 nM | > 100 µM | 2790 nM | 14.2 µM | 3370 nM | > 100 µM |
| O=C1NC(=O)C2(CCC(O)C2)c2cc[n+]([O-])cc21 (stereo not drawn) |  | > 100 µM |  | > 100 µM |  | > 100 µM |  | > 100 µM |  | > 100 µM |  | > 100 µM |  | > 100 µM |  | > 100 µM |  | > 100 µM |  |  |
